Reference: patent US11840686B2, “Modulation of prekallikrein (PKK) expression” (Ionis Pharmaceuticals, Inc., priority 2013, dated 2023)
Strand notation (5' to 3'): a small letter for the sugar, then the base; units joined by * are phosphorothioate-linked, units joined directly phosphodiester-linked; [ ] holds rarer units or linkages, { } end groups; capitals alone tell only the bases. e = 2'-O-(2-methoxyethyl) (MOE); k = constrained ethyl (cEt); [5mC] = 5-methylcytosine; d = 2'-deoxy (DNA)

System: human PKK mRNA
Test: Antisense inhibition of human PKK mRNA in HepaRG cells, 1,000 nM, MOE/deoxy/cEt oligonucleotides (Example 3)
Type: cell-based
How it was run: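 Readout is percent PKK mRNA reduction against untreated controls, by real-time PCR (RTS3454) adjusted for total RNA via RIBOGREEN. Oligonucleotides, phosphorothioate gapmers of 16 nucleosides with cEt, MOE and deoxy sugars, were delivered at 1,000 nM by electroporation to 20,000 HepaRG cells/well for roughly 24 h.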

[1] = Table 21 experiment, HepaRG cells, electroporation with 1,000 nM antisense oligonucleotide, approx. 24 hours, PKK mRNA by RT-PCR (RTS3454), relative to untreated control cells
[2] = HepaRG cells, electroporation with 1,000 nM antisense oligonucleotide, approx. 24 hours, PKK mRNA by RT-PCR (RTS3454), relative to untreated control cells, Table 25 experiment
[3] = HepaRG cells, electroporation with 1,000 nM antisense oligonucleotide, approximately 24 hours, primer probe set RTS3454, relative to untreated control cells, experiment of Table 24
[4] = HepaRG cells, 1,000 nM antisense oligonucleotide, Table 29
[5] = Table 20, HepaRG cells, electroporation with 1,000 nM antisense oligonucleotide, approximately 24 hours, PKK mRNA by RT-PCR (RTS3454), relative to untreated control cells
[6] = Table 22 experiment, HepaRG cells, electroporation with 1,000 nM antisense oligonucleotide, approx. 24 hours, PKK mRNA by RT-PCR (RTS3454), relative to untreated control cells
[7] = Table 27, HepaRG cells, 1,000 nM antisense oligonucleotide, human PKK mRNA
[8] = PKK mRNA, HepaRG cells, 1,000 nM antisense oligonucleotide, Table 31
[9] = HepaRG cells, electroporation with 1,000 nM antisense oligonucleotide, approx. 24 hours, PKK mRNA by RT-PCR (RTS3454), relative to untreated control cells, Table 26 experiment
[10] = Table 28, HepaRG cells, 1,000 nM antisense oligonucleotide, human PKK mRNA
[11] = Table 19, HepaRG cells, electroporation with 1,000 nM antisense oligonucleotide, approximately 24 hours, PKK mRNA by RT-PCR (RTS3454), relative to untreated control cells
[12] = Table 30, human PKK mRNA, HepaRG cells, 1,000 nM antisense oligonucleotide

Substance: 547765 (antisense eA*eG*kG*dT*dG*dA*dG*dT*d[5mC]*dT*d[5mC]*dT*dT*kG*kT*e[5mC]) [compound 547765]
- % inhibition [1]: 20%

Substance: 548166 (eG*e[5mC]*kG*dA*d[5mC]*d[5mC]*dT*d[5mC]*dG*d[5mC]*dA*dT*dT*kG*kT*e[5mC]; antisense) [compound 548166]
- % inhibition [2]: 0%

Substance: 548021 (e[5mC]*eA*k[5mC]*dT*d[5mC]*dT*d[5mC]*d[5mC]*d[5mC]*d[5mC]*dA*dA*dG*kA*kA*eG; antisense) [compound 548021]
- % inhibition [3]: 0%

Substance: 548569 (eA*e[5mC]*kT*d[5mC]*dA*dT*dT*dG*dG*dT*d[5mC]*dT*dA*k[5mC]*kA*eG; antisense) [compound 548569]
- % inhibition [4]: 41%

Substance: 547853 (antisense eT*eA*kT*dA*dA*dA*dT*dG*dT*d[5mC]*dT*d[5mC]*dG*kA*kT*eG) [compound 547853]
- % inhibition [5]: 0%
- % inhibition [6]: 30%

Substance: 548380 (eG*e[5mC]*k[5mC]*d[5mC]*dA*dG*dT*dT*dT*dT*dG*dG*d[5mC]*kA*kA*e[5mC]; antisense) [compound 548380]
- % inhibition [7]: 7%

Substance: 547915 (eT*eG*kG*d[5mC]*dA*dA*d[5mC]*dA*dT*d[5mC]*d[5mC]*dA*d[5mC]*kA*kT*e[5mC]; antisense) [compound 547915]
- % inhibition [5]: 0%
- % inhibition [6]: 62%

Substance: 548646 (antisense e[5mC]*eG*kT*dT*dT*d[5mC]*d[5mC]*d[5mC]*dT*d[5mC]*dA*dA*d[5mC]*kT*k[5mC]*e[5mC]) [compound 548646]
- % inhibition [8]: 24%

Substance: 548334 (antisense eG*e[5mC]*kT*d[5mC]*dA*d[5mC]*dT*dA*dT*dA*dG*dG*d[5mC]*k[5mC]*k[5mC]*e[5mC]) [compound 548334]
- % inhibition [7]: 69%

Substance: 548268 (antisense eT*eG*kT*dG*dT*d[5mC]*dT*dA*dG*dG*dG*dA*dG*kT*kT*eG) [compound 548268]
- % inhibition [9]: 52%

Substance: 548589 (eT*e[5mC]*kT*dG*dT*dT*dA*d[5mC]*d[5mC]*dT*dT*dG*dA*kG*kG*eA; antisense) [compound 548589]
- % inhibition [4]: 40%

Substance: 548643 (antisense e[5mC]*e[5mC]*kT*dA*d[5mC]*d[5mC]*dT*dA*dA*dT*dT*d[5mC]*d[5mC]*kT*k[5mC]*e[5mC]) [compound 548643]
- % inhibition [8]: 0%

Substance: 548257 (antisense eA*eG*kT*dG*d[5mC]*dT*d[5mC]*d[5mC]*d[5mC]*d[5mC]*dA*dT*dG*k[5mC]*kA*eT) [compound 548257]
- % inhibition [9]: 2%

Substance: 548210 (e[5mC]*eA*kA*d[5mC]*dA*dA*dT*d[5mC]*dT*d[5mC]*dT*dG*dG*kT*k[5mC]*eA; antisense) [compound 548210]
- % inhibition [2]: 55%

Substance: 547854 (antisense eA*eT*k[5mC]*dA*dA*d[5mC]*dT*d[5mC]*d[5mC]*dT*dT*dT*dA*kT*kA*eA) [compound 547854]
- % inhibition [5]: 10%
- % inhibition [6]: 9%

Substance: 548292 (eA*eG*kG*dA*d[5mC]*dA*d[5mC]*dT*dG*dT*dT*dT*d[5mC]*k[5mC]*kA*eG; antisense) [compound 548292]
- % inhibition [9]: 38%

Substance: 548243 (eA*eT*kG*d[5mC]*dA*dT*dA*d[5mC]*dT*d[5mC]*dG*d[5mC]*d[5mC]*kT*kT*eT; antisense) [compound 548243]
- % inhibition [9]: 0%

Substance: 548518 (antisense e[5mC]*eA*k[5mC]*dA*d[5mC]*dT*dT*dA*d[5mC]*d[5mC]*d[5mC]*d[5mC]*dG*k[5mC]*kT*e[5mC]) [compound 548518]
- % inhibition [10]: 12%

Substance: 548133 (eA*eG*kA*dA*dT*dT*dT*dG*dA*d[5mC]*dT*dT*dG*kA*kA*e[5mC]; antisense) [compound 548133]
- % inhibition [11]: 23%

Substance: 548531 (antisense eG*eT*k[5mC]*dA*dG*dA*dA*dG*dG*d[5mC]*d[5mC]*dT*d[5mC]*kT*kT*eA) [compound 548531]
- % inhibition [10]: 21%

Substance: 548465 (e[5mC]*eT*kG*dT*dA*d[5mC]*d[5mC]*dT*dA*dT*dA*dA*d[5mC]*kT*kG*eT; antisense) [compound 548465]
- % inhibition [10]: 0%

Substance: 548241 (e[5mC]*eA*kT*dA*d[5mC]*dT*d[5mC]*dG*d[5mC]*d[5mC]*dT*dT*dT*kG*kT*eG; antisense) [compound 548241]
- % inhibition [9]: 1%

Substance: 548628 (antisense eG*eT*kA*dT*dG*dG*d[5mC]*dA*dG*dA*dG*d[5mC]*d[5mC]*k[5mC]*k[5mC]*eT) [compound 548628]
- % inhibition [8]: 9%

Substance: 548390 (eG*e[5mC]*kT*dG*dA*dG*dT*dG*dT*dG*dA*d[5mC]*dT*kT*kA*eA; antisense) [compound 548390]
- % inhibition [12]: 43%

Substance: 548141 (eG*e[5mC]*kA*dG*dA*dT*dG*dA*dG*dG*dA*d[5mC]*d[5mC]*k[5mC]*k[5mC]*e[5mC]; antisense) [compound 548141]
- % inhibition [11]: 66%

Substance: 547822 (eG*e[5mC]*kA*dA*d[5mC]*d[5mC]*dA*dA*dA*d[5mC]*d[5mC]*dT*dT*kT*kT*e[5mC]; antisense) [compound 547822]
- % inhibition [1]: 71%

Substance: 548104 (antisense eA*eT*kG*dT*dA*d[5mC]*dT*d[5mC]*dA*dG*d[5mC]*dG*dA*k[5mC]*kT*eT) [compound 548104]
- % inhibition [11]: 59%

Substance: 548555 (antisense eA*e[5mC]*kA*d[5mC]*dG*d[5mC]*d[5mC]*dA*dG*dG*dT*dG*dA*kA*kA*eA) [compound 548555]
- % inhibition [4]: 2%

Substance: 548679 (antisense eT*e[5mC]*kT*d[5mC]*dA*dA*dG*d[5mC]*dA*dG*d[5mC]*d[5mC]*dT*kA*kT*eT) [compound 548679]
- % inhibition [8]: 0%

Substance: 548249 (antisense eT*eG*kT*dG*dA*dT*dG*d[5mC]*dG*dA*dT*dT*dT*kT*k[5mC]*e[5mC]) [compound 548249]
- % inhibition [9]: 22%

Substance: 548342 (antisense eG*eG*kA*dA*dG*dA*d[5mC]*dT*dT*d[5mC]*d[5mC]*d[5mC]*dT*k[5mC]*kT*eG) [compound 548342]
- % inhibition [7]: 0%

Substance: 548330 (antisense eG*eA*k[5mC]*dT*dA*dG*d[5mC]*dT*dT*d[5mC]*dT*dA*d[5mC]*kT*kA*e[5mC]) [compound 548330]
- % inhibition [7]: 34%

Substance: 548434 (antisense eA*e[5mC]*kA*dA*dT*dA*dT*d[5mC]*dA*d[5mC]*dT*dG*dT*kA*k[5mC]*e[5mC]) [compound 548434]
- % inhibition [12]: 63%

Substance: 548599 (eT*eG*kG*dG*dT*dT*dG*dG*dA*dG*dG*dA*dG*kT*kG*eG; antisense) [compound 548599]
- % inhibition [4]: 19%

Substance: 548302 (eG*e[5mC]*k[5mC]*dA*dT*dT*dT*dT*dA*dT*d[5mC]*d[5mC]*d[5mC]*kT*kG*eA; antisense) [compound 548302]
- % inhibition [9]: 71%

Substance: 548031 (eG*eA*kT*dG*d[5mC]*dG*d[5mC]*d[5mC]*dA*dA*dA*d[5mC]*dA*kT*k[5mC]*e[5mC]; antisense) [compound 548031]
- % inhibition [3]: 73%

Substance: 548044 (eT*eG*kG*dT*dG*dA*dA*dT*dA*dA*dT*dA*dA*kT*k[5mC]*eT; antisense) [compound 548044]
- % inhibition [3]: 12%

Substance: 548456 (eT*eA*kT*dA*dA*d[5mC]*dA*dG*dT*dA*dT*d[5mC]*dA*k[5mC]*k[5mC]*eG; antisense) [compound 548456]
- % inhibition [12]: 52%

Substance: 548016 (eA*eA*kG*dA*dG*dT*dT*dT*dG*dT*dT*d[5mC]*d[5mC]*kT*k[5mC]*e[5mC]; antisense) [compound 548016]
- % inhibition [3]: 55%

Substance: 547805 (eG*eG*kG*dT*dG*dT*dA*d[5mC]*dA*dT*dG*dG*dA*kA*kG*e[5mC]; antisense) [compound 547805]
- % inhibition [1]: 54%

Substance: 548318 (eA*e[5mC]*kT*dG*d[5mC]*dA*d[5mC]*d[5mC]*d[5mC]*d[5mC]*dA*d[5mC]*dA*kT*kA*eT; antisense) [compound 548318]
- % inhibition [7]: 18%

Substance: 548488 (antisense e[5mC]*e[5mC]*kT*d[5mC]*d[5mC]*dT*dT*dT*dT*dG*dG*d[5mC]*dT*kT*kG*eA) [compound 548488]
- % inhibition [10]: 63%

Substance: 547866 (antisense eT*eT*kA*dA*dA*dA*dT*dT*dG*dA*d[5mC]*dT*d[5mC]*k[5mC]*kT*e[5mC]) [compound 547866]
- % inhibition [5]: 46%
- % inhibition [6]: 40%

Substance: 548347 (antisense eG*e[5mC]*kT*dG*dT*dT*d[5mC]*dT*dA*dA*dG*d[5mC]*dG*kA*kG*eA) [compound 548347]
- % inhibition [7]: 31%
